Measured values from patent publication EP1432683B9 (Recordati Ireland Limited, priority 2001, dated 2003).
Where “and” joins values, the source holds several entries; their conditions need not be identical. Equal values may be shown once. Where a name gives a salt, the structure may show the parent alone. Read-outs that look alike come from different tables or passages of the source. Marks after values point to notes of the source that are not given here.

Experiments:
[1] = Solubility in water and in ethanol at room temperature (UV-Visible spectroscopy); type: physicochemical
Excerpt: The molar absorptivity had been previously determined in acetonitrile. The same molar absorptivity was considered for the determination in water and in ethanol. Solubility in water certainly depends on pH. The residual solid obtained by filtration of the suspension was immediately analyzed with Raman spectroscopy.

[2] = Bioavailability of crystalline Forms (I) and (II) in dogs; type: in vivo, Beagle dogs
Procedure: A study was carried out on six Beagle dogs to evaluate the bioavailability of crystalline Forms (I) and (II).
Blood samples were taken at given times and plasma concentrations of lercanidipine were determined with a stereoselective analytical method HPLC-MS/MS, according to the following working conditions;
Lercanidipine was extracted from dog plasma by means of a liquid-liquid extraction with a mixture of n-hexane and ethyl ether. The dry residue of the organic phase was taken up with a mixture of methanol and water and a liquid-phase chromatographic separation (LC) was carried out; the two enantiomers of lercanidipine were separated on a CHIROBIOTIC V column (Vancomycin) (particle size […], column size 150 x 4.6 mm (ASTEC, NJ, USA)) and were detected with a mass spectrometer (MS/MS) by using an electrospray technique.
The analytical method was validated in a concentration range between 0.1 and 20 ng/ml of plasma for both enantiomers. The method has shown to be specific with an accuracy of 15%. The average concentrations of lercanidipine in the tables represent the sum of both enantiomers.

[3] = Relative bioavailability of Form (I) and Form (II) in man; type: in vivo
Procedure: Blood samples were taken at 15 points from time 0 to 24 h post-dosing and plasma concentrations of lercanidipine were determined with a stereoselective analytical method HPLC-MS/MS.

[4] = Solubility in mixtures of water-ethanol at 25°C and 40°C; type: physicochemical; conditions: at both 25°C and 40°C
[5] = Hygroscopicity by DVS analysis; type: physicochemical; conditions: 25°C, whole RH range tested
Procedure: The hygroscopicity of both crystalline Forms (I) and (II) was measured with DVS analysis by means of a water absorption analyzer (SURFACE MEASUREMENT SYSTEM, Marion, Buckinghamshire, UK) according to the following working conditions: […]

[6] = Dog 1, oral 3 mg/kg, hydrochloride, 3 mg/kg
[7] = Dog 2 (not included in mean), oral 3 mg/kg, hydrochloride, 3 mg/kg
[8] = Dog 3, oral 3 mg/kg, hydrochloride, 3 mg/kg
[9] = Dog 4, oral 3 mg/kg, hydrochloride, 3 mg/kg
[10] = Dog 5, oral 3 mg/kg, hydrochloride, 3 mg/kg
[11] = Mean (n=5, Dog 2 not included), oral 3 mg/kg, hydrochloride, 3 mg/kg

COC(=O)C1=C(C)NC(C)=C(C(=O)OC(C)(C)CN(C)CCC(c2ccccc2)c2ccccc2)C1c1cccc([N+](=O)[O-])c1 (single isomer, unassigned) [Form (II), lercanidipine hydrochloride]
Solubility compared with Form (I) [1]: less soluble than Form (I) in both solvents | AUC0-t [2, 6]: 54.59 ng/h/mL | Cmax [2, 6]: 18.46 ng/mL | Tmax [2, 6]: 3.00 h | AUC0-t [2, 7]: 119.77 ng/h/mL | Cmax [2, 7]: 52.19 ng/mL | Tmax [2, 7]: 1.50 h | AUC0-t [2, 8]: 75.62 ng/h/mL | Tmax [2, 8]: 1.50 h | AUC0-t [2, 9]: 173.82 ng/h/mL | Tmax [2, 9]: 4.00 h | AUC0-t [2, 10]: 142.34 ng/h/mL | Cmax [2, 10]: 55.38 ng/mL | Tmax [2, 10]: 2.00 h | Tmax ([2]; Dog 6, oral 3 mg/kg): 6.00 h | AUC0-t ([2]; Dog 6, oral 3 mg/kg, hydrochloride, 3 mg/kg): 61.91 ng/h/mL | AUC0-t [2, 11]: 104.68 ng/h/mL | Cmax [2, 11]: 36.17 ng/mL | Tmax [2, 11]: 3.00 h | concentration in plasma of lercanidipine (S+R) ([2]; Time 0 h, Dog 1, oral 3 mg/kg): 0.00 ng/mL | concentration in plasma of lercanidipine (S+R) ([2]; Time 0 h, Dog 2 (not included in mean), oral 3 mg/kg): 0.00 ng/mL | concentration in plasma of lercanidipine (S+R) ([2]; Time 0 h, Dog 3, oral 3 mg/kg): 0.00 ng/mL | concentration in plasma of lercanidipine (S+R) ([2]; Time 0 h, Dog 4, oral 3 mg/kg): 0.00 ng/mL | concentration in plasma of lercanidipine (S+R) ([2]; Time 0 h, Dog 5, oral 3 mg/kg): 0.00 ng/mL | concentration in plasma of lercanidipine (S+R) ([2]; Time 0 h, Dog 6, oral 3 mg/kg): 0.00 ng/mL | concentration in plasma of lercanidipine (S+R) ([2]; Time 0 h, Mean (Dog 2 not included), oral 3 mg/kg): 0.00 ng/mL | concentration in plasma of lercanidipine (S+R) ([2]; Time 0.5 h, Dog 1, oral 3 mg/kg, hydrochloride, 3 mg/kg): 0.00 ng/mL | concentration in plasma of lercanidipine (S+R) ([2]; Time 0.5 h, Dog 2 (not included in mean), oral 3 mg/kg, hydrochloride, 3 mg/kg, 30 min): 22.67 ng/mL | concentration in plasma of lercanidipine (S+R) ([2]; Time 0.5 h, Dog 4, oral 3 mg/kg): 0.00 ng/mL | concentration in plasma of lercanidipine (S+R) ([2]; Time 0.5 h, Dog 5, oral 3 mg/kg): 0.00 ng/mL | concentration in plasma of lercanidipine (S+R) ([2]; Time 0.5 h, Dog 6, oral 3 mg/kg): 0.00 ng/mL | concentration in plasma of lercanidipine (S+R) ([2]; Time 1 h, Dog 1, oral 3 mg/kg, hydrochloride, 3 mg/kg): 0.00 ng/mL | concentration in plasma of lercanidipine (S+R) ([2]; Time 1 h, Dog 2 (not included in mean), oral 3 mg/kg, hydrochloride, 3 mg/kg, 60 min): 52.13 ng/mL | concentration in plasma of lercanidipine (S+R) ([2]; Time 1 h, Dog 6, oral 3 mg/kg): 0.00 ng/mL | concentration in plasma of lercanidipine (S+R) ([2]; Time 1 h, Mean (Dog 2 not included), oral 3 mg/kg, hydrochloride, 3 mg/kg, 60 min): 5.08 ng/mL | concentration in plasma of lercanidipine (S+R) ([2]; Time 1.5 h, Dog 1, oral 3 mg/kg, hydrochloride, 3 mg/kg, 90 min): 0.23 ng/mL | concentration in plasma of lercanidipine (S+R) ([2]; Time 1.5 h, Dog 2 (not included in mean), oral 3 mg/kg, hydrochloride, 3 mg/kg, 90 min): 52.19 ng/mL | concentration in plasma of lercanidipine (S+R) ([2]; Time 1.5 h, Dog 3, oral 3 mg/kg, hydrochloride, 3 mg/kg, 90 min): 19.78 ng/mL | concentration in plasma of lercanidipine (S+R) ([2]; Time 1.5 h, Dog 5, oral 3 mg/kg, hydrochloride, 3 mg/kg, 90 min): 32.69 ng/mL | concentration in plasma of lercanidipine (S+R) ([2]; Time 1.5 h, Mean (Dog 2 not included), oral 3 mg/kg, hydrochloride, 3 mg/kg, 90 min): 18.32 ng/mL | concentration in plasma of lercanidipine (S+R) ([2]; Time 2 h, Dog 2 (not included in mean), oral 3 mg/kg, hydrochloride, 3 mg/kg, 120 min): 35.45 ng/mL | concentration in plasma of lercanidipine (S+R) ([2]; Time 2 h, Dog 3, oral 3 mg/kg, hydrochloride, 3 mg/kg, 120 min): 17.81 ng/mL | concentration in plasma of lercanidipine (S+R) ([2]; Time 2 h, Dog 4, oral 3 mg/kg, hydrochloride, 3 mg/kg, 120 min): 38.10 ng/mL | concentration in plasma of lercanidipine (S+R) ([2]; Time 2 h, Dog 5, oral 3 mg/kg, hydrochloride, 3 mg/kg, 120 min): 55.38 ng/mL | concentration in plasma of lercanidipine (S+R) ([2]; Time 2 h, Dog 6, oral 3 mg/kg, hydrochloride, 3 mg/kg, 120 min): 10.19 ng/mL | concentration in plasma of lercanidipine (S+R) ([2]; Time 2 h, Mean (Dog 2 not included), oral 3 mg/kg, hydrochloride, 3 mg/kg, 120 min): 25.82 ng/mL | concentration in plasma of lercanidipine (S+R) ([2]; Time 3 h, Dog 1, oral 3 mg/kg, hydrochloride, 3 mg/kg, 180 min): 18.46 ng/mL | concentration in plasma of lercanidipine (S+R) ([2]; Time 3 h, Dog 2 (not included in mean), oral 3 mg/kg, hydrochloride, 3 mg/kg, 180 min): 17.43 ng/mL | concentration in plasma of lercanidipine (S+R) ([2]; Time 3 h, Dog 3, oral 3 mg/kg, hydrochloride, 3 mg/kg, 180 min): 15.80 ng/mL | concentration in plasma of lercanidipine (S+R) ([2]; Time 3 h, Mean (Dog 2 not included), oral 3 mg/kg, hydrochloride, 3 mg/kg, 180 min): 23.46 ng/mL | concentration in plasma of lercanidipine (S+R) ([2]; Time 4 h, Dog 1, oral 3 mg/kg, hydrochloride, 3 mg/kg, 240 min): 14.83 ng/mL | concentration in plasma of lercanidipine (S+R) ([2]; Time 4 h, Dog 2 (not included in mean), oral 3 mg/kg, hydrochloride, 3 mg/kg, 240 min): 5.17 ng/mL | concentration in plasma of lercanidipine (S+R) ([2]; Time 4 h, Dog 4, oral 3 mg/kg, hydrochloride, 3 mg/kg, 240 min): 52.64 ng/mL | concentration in plasma of lercanidipine (S+R) ([2]; Time 4 h, Dog 6, oral 3 mg/kg, hydrochloride, 3 mg/kg, 240 min): 13.24 ng/mL | concentration in plasma of lercanidipine (S+R) ([2]; Time 4 h, Mean (Dog 2 not included), oral 3 mg/kg, hydrochloride, 3 mg/kg, 240 min): 23.69 ng/mL | concentration in plasma of lercanidipine (S+R) ([2]; Time 6 h (last sampling time), Mean (Dog 2 not included), oral 3 mg/kg, hydrochloride, 3 mg/kg, 360 min): 10.9 ± 6.8 ng/mL and 10.89 ng/mL | concentration in plasma of lercanidipine (S+R) ([2]; Time 6 h, Dog 1, oral 3 mg/kg, hydrochloride, 3 mg/kg, 360 min): 8.05 ng/mL | concentration in plasma of lercanidipine (S+R) ([2]; Time 6 h, Dog 2 (not included in mean), oral 3 mg/kg, hydrochloride, 3 mg/kg, 360 min): 4.50 ng/mL | concentration in plasma of lercanidipine (S+R) ([2]; Time 6 h, Dog 3, oral 3 mg/kg, hydrochloride, 3 mg/kg, 360 min): 3.62 ng/mL | concentration in plasma of lercanidipine (S+R) ([2]; Time 6 h, Dog 4, oral 3 mg/kg, hydrochloride, 3 mg/kg, 360 min): 17.46 ng/mL | concentration in plasma of lercanidipine (S+R) ([2]; Time 6 h, Dog 5, oral 3 mg/kg, hydrochloride, 3 mg/kg, 360 min): 6.76 ng/mL | concentration in plasma of lercanidipine (S+R) ([2]; Time 6 h, Dog 6, oral 3 mg/kg, hydrochloride, 3 mg/kg, 360 min): 18.56 ng/mL | Cmax ([2]; dog, plasma, po, 3 mg/kg, Dog 3, read-out: Cmax): 19.8 ng/mL | Cmax ([2]; dog, plasma, po, 3 mg/kg, Dog 4, read-out: Cmax): 52.6 ng/mL | Cmax ([2]; dog, plasma, po, 3 mg/kg, Dog 6, read-out: Cmax): 18.6 ng/mL | concentration at 0.5 h ([2]; dog, plasma, po, 3 mg/kg, Time 0.5 h, Dog 3, read-out: concentration in plasma of lercanidipine (S+R)): 6.99 ng/mL | concentration at 0.5 h ([2]; dog, plasma, po, 3 mg/kg, Time 0.5 h, Mean (Dog 2 not included), read-out: concentration in plasma of lercanidipine (S+R)): 1.4 ng/mL | concentration at 1 h ([2]; dog, plasma, po, 3 mg/kg, Time 1 h, Dog 3, read-out: concentration in plasma of lercanidipine (S+R)): 16.6 ng/mL | concentration at 1 h ([2]; dog, plasma, po, 3 mg/kg, Time 1 h, Dog 4, read-out: concentration in plasma of lercanidipine (S+R)): 5.5 ng/mL | concentration at 1 h ([2]; dog, plasma, po, 3 mg/kg, Time 1 h, Dog 5, read-out: concentration in plasma of lercanidipine (S+R)): 3.28 ng/mL | concentration at 1.5 h ([2]; dog, plasma, po, 3 mg/kg, Time 1.5 h, Dog 4, read-out: concentration in plasma of lercanidipine (S+R)): 35.4 ng/mL | concentration at 1.5 h ([2]; dog, plasma, po, 3 mg/kg, Time 1.5 h, Dog 6, read-out: concentration in plasma of lercanidipine (S+R)): 3.49 ng/mL | concentration at 2 h ([2]; dog, plasma, po, 3 mg/kg, Time 2 h, Dog 1, read-out: concentration in plasma of lercanidipine (S+R)): 7.63 ng/mL | concentration at 3 h ([2]; dog, plasma, po, 3 mg/kg, Time 3 h, Dog 4, read-out: concentration in plasma of lercanidipine (S+R)): 28.4 ng/mL | concentration at 3 h ([2]; dog, plasma, po, 3 mg/kg, Time 3 h, Dog 5, read-out: concentration in plasma of lercanidipine (S+R)): 40.6 ng/mL | concentration at 4 h ([2]; dog, plasma, po, 3 mg/kg, Time 4 h, Dog 3, read-out: concentration in plasma of lercanidipine (S+R)): 14.1 ng/mL | concentration at 4 h ([2]; dog, plasma, po, 3 mg/kg, Time 4 h, Dog 5, read-out: concentration in plasma of lercanidipine (S+R)): 23.7 ng/mL | bioequivalence to Form I ([3]; 10 mg tablet): not bioequivalent to Form I | AUC0-t ([3]; 10 mg tablet, single dose, geom. least square mean, 1440 min, hydrochloride): 10.36 ng·h/mL | Cmax ([3]; 10 mg tablet, single dose, geom. least square mean, hydrochloride): 3.22 ng/mL | Tmax ([3]; 10 mg tablet, single dose, median, hydrochloride): 2.50* h | tmax Point Estimate (T/R), median difference ([3]; Test = Form (II) tablet, Reference = Form (I) tablet (Zanedip)): 0.75** h | water concentration at which the maximum solubility is reached [4]: 20% | mass variation [5]: < 0.05%
